Values quoted from earlier work, collected in PMC3159814 (Bioorganic & medicinal chemistry letters, 2011).

Test system: GnRH receptor

In the case of “1,4,7,10-tetraazacyclododecane-1,4,7,10-tetraacetic acid (DOTA)-Ahx-(D-Lys^6-GnRH1) [DOTA-Ahx-(D-Lys^6-GnRH1)]”, the “GnRH receptor binding affinity” value is listed as 36.1 nM.
